Patent US8703964B2, “Bendamustine cyclopolysaccharide compositions” (Supratek Pharma Inc., priority 2009, dated 2014)

How the values were obtained:
[1] = tested on: Human breast carcinoma (MDA-MB 231) subcutaneous solid tumours; test: Human breast carcinoma MDA-MB 231 s.c. solid tumours in nude mice (Example 27); format: in vivo, balb/c nu/nu mice; conditions: 35 mg/kg
Method: balb/c mice aged 5 to 6 weeks were purchased from Charles River Canada Inc. The animals were kept 5 per cage with an air filter cover under light (12 light/dark cycle, light on at 6 H00) and temperature (22° C.±1° C.)-controlled environment. All manipulations of animals were performed under a sterilized laminar hood. The animals had ad libitum access to Purina mouse chow (Pro Lab PMH 4018, Trademark of Agway, Syracuse, N.Y.) and water. These animal studies were conducted according to the “Guidelines for Care and Use of Experimental Animals”. Tumor Cell Culture: Human breast cancer cells MDA-MB 231 were cultured in the appropriated culture medium. The cells were harvested in their logarithmic growth phase for the preparation of tumor implantation. Tumor Implantation: Human tumor or myeloma cells (2.5 to 5.0×10^6 cells) were implanted subcutaneously in 0.200 mL of medium containing 30% Matrigel on the two flanks of balb/c nu/nu mice through a 1 to 2 cm long 20-gauge needle. Treatments: 2 to 3 weeks after tumor cell implantation, animals that developed s.c. solid tumors were selected and divided into several homogeneous groups (n=5 animals per group or dose) with respect to tumor size (0.5 to 0.8 cm in diameter). The treatments were performed next day. The animals were dosed with the following dosing solutions. Control: (0.9%, NaCl) Compositions:
non-formulated Bendamustine, (35 mg/kg)
Bendamustine (35 mg/kg) in 40% SBECD, 1% protamine sulfate (formulated BM)
Subcutaneous solid tumor measurements were performed on the day of first injection and at 3- to 4-day intervals thereafter. The two largest perpendicular diameters of each tumor were measured with calipers and tumor sizes were estimated using the formula: TV=L×W/2 where TV: tumor volume; L: length; W: width. The body weights of animals were also noted.

[2] = Pharmacokinetics of bendamustine dosed to rats, composition with SBECD and protamine sulphate (Example 13); format: in vivo; conditions: female, Sprague-Dawley, rat, plasma, iv, i.v. 10 mg/kg, read-out: Concentration of bendamustine in rat plasma, Mean (SEM)
Method: Control: 2.5 mg/mL bendamustine hydrochloride, 4.25 mg/mL of mannitol in 0.9% NaCl; dose of 10 mg/kg
Inventive Composition: 2.5 mg/mL bendamustine hydrochloride, 40% w/w sodium sulfobutyl ether β-cyclodextrin, 3% protamine sulfate, 4.3 mg/g mannitol in water (produced according to the process described in Example 10); dose of 10 mg/kg.
Female Sprague-Dawley rats (250-350 g). The animals were kept three per cage with an air filter cover under light (12 h light/dark cycle, light on at 06 h00) and controlled temperature of 22° C.+/−1° C. All manipulations with the animals were performed under a sterilized laminar hood. The animals had ad libitum access to Purina mouse chow and water. The animals were fasted overnight and anesthetized, before dosing. Dosing and Sampling: Bendamustine composition and control were administered intravenously to rats in tail vein. After time intervals 5, 15, 30, 45 min, 1, 1.5, 2 and 3 hrs post-injection, the blood samples were collected. The rats were anesthetized by general inhalation of isoflurane. The blood samples were collected from the jugular vein with heparinized tube and kept on ice. Blood was immediately centrifuged, and plasma was separated. The plasma samples were immediately extracted. Sample Extraction and Analysis: The plasma samples 0.100 mL were transferred to plastic tubes. The samples were extracted with 0.400 mL of 100 mM HCl in acetonitrile while being shaken vigorously for 30 seconds. The samples were centrifuged at 10000 RPM for 5 minutes. The supernatant was separated. The samples were frozen in dry ice and kept at −80° C. until HPLC analysis. 20 microliter aliquots were injected into HPLC for analysis. The HPLC conditions: C18 reversed phase column 50×4.6 mm, Symmetry/Shield 3.5 micrometer Column temperature 30° C. Flow rate 1.5 mL/min Injection volume 20 microliters Fluorescence detection at wavelengths: excitation 327 nm, emission 420 nm Mobile phase: Buffer A: 5% acetonitrile 0.1% TFA Buffer B: 90% acetonitrile 0.1% TFA Run time: 10 min The improved pharmacokinetic profiles of Bendamustine for tested composition versus the control is shown in Table 3 below.

[3] = Bendamustine chemical stability in plasma, HPLC (Example 31); format: in vitro ADME; conditions: heparinized human plasma, 37° C., initially 0.015 mg/mL bendamustine; read-out: T½ in plasma (decomposition half time)
Method: Heparinized human plasma was spiked, 20 μL into 780 μL of plasma, with the following bendamustine (BM) compositions:
The concentration of bendamustine in plasma after spiking was initially 0.015 mg/mL. The spiked plasma samples were incubated at 37° C. A sample of 50 μL was periodically withdrawn from spiked plasma, and transferred into 200 μL of 100 mM HCl solution in acetonitrile, mixed and centrifuged. 50 μL of the supernatant was diluted 20 times with 95% acetonitrile, then 20 μL of diluted samples were separated on Waters SymmetryShield RP18 3.5 μm column (4.6×50 mm) using gradient of acetonitrile (0.1% TFA) in water (0.1% TFA), flow 1.5 mL/min. Peak detection was performed by means of fluorescence detection with […] at 327 nm and emission at 420 nm. The area of the peak of Bendamustine was used to evaluate the rate of drug decomposition in the first order kinetics model.

Cn1c(CCCC(=O)O)nc2cc(N(CCCl)CCCl)ccc21 [BM, 4-[5-[bis(2-chloroethyl)amino]-1-methylbenzimidazol-2-yl]butanoic acid]
Tumor weight after treatment, Average (SEM) ([1]; day 0): 0.237 (0.008) g | Tumor weight after treatment, Average (SEM) ([1]; day 2): 0.250 (0.028) g | Tumor weight after treatment, Average (SEM) ([1]; day 4): 0.294 (0.027) g | Tumor weight after treatment, Average (SEM) ([1]; day 7): 0.313 (0.030) g | Tumor weight after treatment, Average (SEM) ([1]; day 9): 0.349 (0.038) g | Tumor weight after treatment, Average (SEM) ([1]; day 11): 0.417 (0.046) g | Inhibition % vs control (on day 14) ([1]; day 14): 70.2% | Tumor volume on day 14 ([1]; day 14): 0.54 ± 0.06 g | Tumor weight after treatment, Average (SEM) ([1]; day 14): 0.537 (0.055) g | Body weight on day 14 ([1]; nude mice with MDA-MB 231 tumours): 18.1 ± 0.39 g | concentration at 0.08 h ([2]; 0.08 h post injection): 6040 ng/mL | concentration at 0.25 h ([2]; 0.25 h post injection): 2430 ng/mL | concentration at 0.5 h ([2]; 0.5 h post injection): 520 ng/mL | concentration at 0.75 h ([2]; 0.75 h post injection): 145 ng/mL | concentration at 1 h ([2]; 1 h post injection): 48 ng/mL | concentration at 1.5 h ([2]; 1.5 h post injection): 8 ng/mL | concentration at 2 h ([2]; 2 h post injection): 2 ng/mL | concentration at 3 h ([2]; 3 h post injection): 0 ng/mL | half-life at 0.015 mg/mL [3]: 2.05 h
